Reference: patent US20160022556A1, “1,5-ANHYDRO-D-GLUCITOL-CONTAINING COLLAGEN PRODUCTION ACCELERATOR” (NATIONAL UNIVERSITY CORPORATION UNIVERSITY OF TOYOMA, priority 2013, published 2016)

Key:
[1] = tested on: skin surface of human; experiment: Moisturizing effect: water content of skin surface in short-term use test of human volunteers (SKICON200); format: in vivo; details: for Water Content of Skin Surface, Mean (%) SD, relative value where the initial value was defined as 100%: 2.5 μL/cm^2, medial part of forearm, n = 4
Procedure: The moisturizing effects of the 1,5-AG are evaluated by a short-term use test of human volunteers. Specifically, with 5 males of ages of 26 to 34 as test individuals, an aqueous solution of a sample listed in Table 2 in a given concentration was applied in an amount of 2.5 μL/cm^2 at a medial part of forearm, and the water content of the skin surface was measured in accordance with the following method.
<Measurement of Water Content of Skin Surface>
Each test individual washed his medial part of forearm with a given detergent, and was conditioned for 15 minutes in a thermohygrostat (room temperature: 22° C., humidity: 45%). Thereafter, an initial value of the water content of the skin surface was measured with SKICON200 (manufactured by I.B.S. Co., Ltd., corneometer). Next, each of the test samples and purified water were coated according to a coating method. Further, uncoated sites were set. Water contents were measured immediately after the sample coating, after 15 minutes, after 30 minutes, and after 45 minutes. The water content of the uncoated sites was measured matching the measurement time at the sample-coated sites. The change in the water contents of each site to be tested was expressed in a relative value where an initial value was defined as 100%. The difference in the water content of skin surface in each test individual before and after the use of test samples was subjected to a significance test according to a Student-t test. The data for test individuals of which water contents of skin surface of the uncoated sites increased with passage of time were discarded as abnormal values, and the results calculated using the measurement values of four individuals are shown in Table 2 and FIG. 2.

[2] = tested on: normal human fibroblasts; experiment: Type I collagen synthesis of normal human fibroblasts (ELISA of culture supernatant; protein by BCA method); format: cell-based; details: for Type I Collagen, Mean S.D.: 24-hour culture, n = 6, untreated control 7.03 ± 0.25
Procedure: The action of 1,5-AG on the synthesis of type I collagen of dermal fibroblasts is evaluated. Specifically, normal human fibroblasts were spread on a 96-well microplate using Dulbecco's modified eagle medium (DMEM) containing 0.5% fetal bovine serum (FBS). The fibroblasts were cultured at 37° C. for 24 hours, and thereafter the medium was exchanged with a 0.5% FBS-containing DMEM containing a given concentration of samples. As a positive control (P.C.), the same treatment was carried out with magnesium ascorbyl phosphate. After the 24-hour culture in the sample-containing medium, the culture supernatant was collected and subjected to ELISA. Also, the amount of protein was measured in accordance with bicinchoninic acid (BCA) method with PIERCE (manufactured by Pierce Biotechnology Inc.).
The culture supernatant and the collagen solutions for calibration curve were each dispensed in each well of high-adsorbent ELISA plate, and allowed to coat at 4° C. over one day and night. Thereafter, the coated plate was blocked at 37° C. for 1 hour with a 1% bovine serum albumin (BSA) solution. The primary antibody reaction was carried out by diluting Anti-Human Collagen Type I antibody (manufactured by Bio-Rad Laboratories, Inc., Rabbit) with a 0.3% BSA solution, and the dilution was added to each well and allowed to react at 37° C. for 1 hour. The secondary antibody reaction was carried out by diluting Histofine MAX-PO® (manufactured by NICHIREI, Rabbit) with a phosphate buffer, and the dilution was added to each well, and allowed to react at 37° C. for 1 hour. Next, 0.3 mg/mL of phosphate-citrate buffer (0.1 M, pH 4.0) containing 2,2′-azinobis(3-ethylbenzothiazoline-6-sulfonic acid)diammonium salt (ABTS) and a 0.03% hydrogen peroxide was added to each well and allowed to react for 20 minutes, and the absorbance of the reaction mixture was measured at 405 nm with a microplate reader.
The amount of the collagen in the culture supernatant was calculated from the calibration curve prepared from commercially available collagen. By dividing the amount of collagen in the medium by the amount of proteins in all the cells, the amount of collagen synthesized per unit protein amount was calculated. The amount of collagen synthesized at each concentration was subjected to a significance test using a Student-t test, and a difference with an untreated control was evaluated.

OC[C@H]1OC[C@H](O)[C@@H](O)[C@@H]1O [1,5-AG, 1,5-anhydro-D-glucitol] was tested, and the “Water Content of Skin Surface, Mean (%) SD, relative value where the initial value was defined as 100%” value ([1]; 2% aqueous solution, After 15 min) was 154.2 ± 12.3%, the “Water Content of Skin Surface, Mean (%) SD, relative value where the initial value was defined as 100%” value ([1]; 2% aqueous solution, After 30 min) was 180.3 ± 36.2% and the “Water Content of Skin Surface, Mean (%) SD, relative value where the initial value was defined as 100%” value ([1]; 2% aqueous solution, After 45 min) was 176.7 ± 15.8%. For the same molecule, the “Water Content of Skin Surface, Mean (%) SD, relative value where the initial value was defined as 100%” value ([1]; 2% aqueous solution, Immediately after Coating) was 2,535.4 ± 749.6%, the “action on the water content of skin surface (moisturizing property)” value ([1]; test sample of 2% 1,5-AG, human volunteers) was “action of increasing the water content of skin surface” and the “Type I Collagen, Mean S.D.” value ([2]; 313 μg/mL sample) was 7.81 ± 0.60 ng/μg protein. The “Type I Collagen, Mean S.D.” value ([2]; 625 μg/mL sample) was 8.28 ± 0.50 ng/μg protein, the “Type I Collagen, Mean S.D.” value ([2]; 1250 μg/mL sample) was 8.31 ± 0.49 ng/μg protein and the “amount of type I collagen synthesized in the normal human fibroblasts” value ([2]; versus untreated control, Student-t test) was “significantly increased”.
For Sodium Hyaluronate [reference compound], the “Water Content of Skin Surface, Mean (%) SD, relative value where the initial value was defined as 100%” value ([1]; 1% aqueous solution, After 15 min) was 122.6 ± 15.7%, the “Water Content of Skin Surface, Mean (%) SD, relative value where the initial value was defined as 100%” value ([1]; 1% aqueous solution, After 30 min) was 116.9 ± 23.7% and the “Water Content of Skin Surface, Mean (%) SD, relative value where the initial value was defined as 100%” value ([1]; 1% aqueous solution, After 45 min) was 130.1 ± 10.3%. For the same molecule, the “Water Content of Skin Surface, Mean (%) SD, relative value where the initial value was defined as 100%” value ([1]; 1% aqueous solution, Immediately after Coating) was 3,101.8 ± 1,716.3%.
